Measured values from a melting point compilation (Tetko et al.; mined from patent text by program, amines drawn as free bases though some values may be those of a salt).

Structure (SMILES) | melting point [°C]
Cc1nc2cccc(OCC(C)(C)NC(=O)CC(C)C)c2c(N)c1C(=O)O | 195 to 198
C[Si](C)(C)N1CCN(N=Cc2ccccc2)C(=O)C1=O | 190 to 191
CC(C)C(=O)CCC(C)C1CCC2(C#N)C3=CCC4CC(OC(=O)c5ccccc5)CCC4(C)C3CCC12C (stereo not given) | 168 to 169
CC(=N)Nc1ccc2nc(-c3ccccc3)ncc2c1 | 162 to 164
C=CCc1cc2cc(CC=C(C)C)c(=O)[nH]c2c(CC=C)c1O | 241 to 244
CCOC(=O)c1sc2c(c1OC(C)=O)CN(Cc1ccccc1Cl)CC2 | 110
Cc1nc(Sc2cc(C(=O)O)ccn2)sc1CC(=O)O | 212 to 214
O[C@@H](c1n[nH]cc1-c1ccccc1)[C@H](CCN1CCC(O)(c2ccccc2)CC1)c1ccc(Cl)c(Cl)c1 (racemic) | 122 to 124
COc1ccc(CCC(C)NC(Cc2ccccc2C)=NC#N)cc1 (stereo not given) | 103 to 104
CC(Cn1ccnc1)OCC(O)(P(=O)(O)O)P(=O)(O)O (stereo not given) | 135 to 140
Nc1ccc(C(=O)N2Cc3ccccc3Cc3cc(Cl)ccc32)cc1 | 211 to 214
O=C(O)C1CSC(C2CCCCC2)N1 (mixture of isomers) | 248
COc1ccccc1-c1cc(=O)c2ccccc2o1 | 97 to 98.5
Cc1oncc1C(=O)c1ccc(C(F)(F)F)cc1[N+](=O)[O-] | 85 to 86
O=C(Cc1ccccc1)NCCc1ccccc1 | 91 to 92
CC(C)(CCCOc1ccccc1)C(=O)O | 151 to 152
COCCOC(=O)C1=C(C)NC(C)C(C(=O)OC(C)C)(c2ccc(F)cc2F)C1 (stereo not given) | 123 to 126
NS(=O)(=O)c1ccc(C2=C(c3ccc(F)cc3)CCC2)cc1 | 173 to 174
CSc1nc(N)c(N)c(N)n1 | 180 to 182
CC(C)n1nc(-c2c(-c3ccccc3)nn3ccc(OCC(=O)N4CCN(C(=O)N(C)C)CC4)cc23)ccc1=O | 151 to 152

Structure (SMILES) | melting point [°C]
C[C@@H](n1cnc2cc(OCC(F)F)ccc2c1=O)[C@](O)(Cn1cncn1)c1ccc(F)cc1F | 96 to 102
CC(CN(C)C)Oc1ccc(-c2nn(CC(=O)O)c3ncccc23)cc1 (stereo not given) | 210 to 211
CC(C)n1nc(-c2c(NC(=N)N)nc(N)nc2-c2ccccc2)ccc1=O | 272 to 274
O=C1C(CCO)Oc2ccccc2N1Cc1ccncc1 (stereo not given) | 153 to 154
Cn1c(CC(=O)O)ccc1C(=O)c1ccc(Cl)cc1Cl | 165 to 166
Cn1c(COc2cccc(N)c2)nc2ccccc21 | 149 to 153
CCOC(=O)Cc1csc(Nc2ccc(Cl)c(C(F)(F)F)c2)n1 | 148 to 150
CC(C)N(CCCN1C(=O)/C(=N/NC(N)=O)c2ccccc21)C(C)C | 173 to 175
CC(=O)c1ccc(NS(C)(=O)=O)c(Cl)c1 | 129 to 131
CC#CCOc1ccc(S(=O)(=O)N(C)C(C(=O)NO)C(C)(C)SCC(C)N(CC)CC)cc1 (stereo not given) | 65 to 68
Cc1ccc2c(=O)n(CCCN3CC=C(c4ccc(Cl)cc4)CC3)c(=O)[nH]c2c1 | 199 to 201
O=C(NCc1ccc(Cl)cc1)c1cnc2c(Cl)cccc2c1O | 279 to 281
O=[N+]([O-])c1cc([C@@H]2CO2)ccc1OCc1ccccc1 | 66
CCOC(=O)C(C)(C(=O)OCC)C(=O)c1cc([N+](=O)[O-])cc(Br)c1Cl | 75 to 76.5
CC(C)(C)OC(=O)N[C@@H](Cc1ccc2ccccc2c1)C(=O)OCc1ccccc1 | 90 to 91
COc1ccc(CNc2n[nH]c3ncnc(Nc4cccc(Cl)c4)c23)cc1O | 225 to 227
CC(C)c1cc(C(C)C)c2c(c1)C1(N)C(=O)c3ccccc3C1(O)O2 (stereo not given) | 199 to 200
CC(=O)c1cnc2c(n1)CCCC2 | 42 to 45
CCOC(=O)C=C1CCC(C#N)(c2ccc(OC)c3c2OCCO3)CC1 (stereo not given) | 110 to 112
O=C(O)[C@@H]1C[C@H]1c1ccc([N+](=O)[O-])cc1 (relative stereo) | 195 to 196
